Values quoted from earlier work as cited in patent US11266615B2, “Pyrimethamine-based pharmaceutical compositions and methods for fabricating thereof” (Harrow IP, LLC, priority 2018, dated 2022).

Settings: background statement

CCc1nc(N)nc(N)c1-c1ccc(Cl)cc1 [pyrimethamine, 5-(4-chlorophenyl)-6-ethyl-pyrimidine-2,4-diamine]
solubility in water: poor
